Source: patent US5869031A, “Depigmenting dermatological and/or cosmetic composition” (priority 1995, dated 1999)

Legend:
[1] = UVA and UVB sunscreen activity, spectrophotometric study; format: physicochemical; settings: extract titrated to 5% umbelliferone, Parsol MCX as comparison
[2] = Anti-radical activity on radical propagation (hydroxyl radicals), evaluated on DPHH; settings: extract containing 5% umbelliferone; vitamin E as comparison
Procedure: Evaluation of the anti-radical activity
disappearance of the free radicals. Free radical traps act on the superoxide anion O2^- but also on the hydroxyl radicals. Thus, we have sought to evaluate the anti-radical activity on these two steps.
The activity on radical propagation, and thus on the hydroxyl radicals, is evaluated on DPHH, diphenyl-picrylhydrazyl hydrate, which is a stable, colored free radical.

Molecule | specific extension coefficient at 310 nm [1] | IC50 on DPHH (radical propagation, hydroxyl radicals) [2] [µg/mL]
CCCCC(CC)COC(=O)C=Cc1ccc(OC)cc1 (centres unmarked) [Parsol MCX] | 810 | –
vitamin E | – | 6
